In patent US20230093124A1, “Salts of Nintedanib and Crystalline Forms Thereof” (Apotex Inc., priority 2021, published 2023):

Tests used:
[1] = Form stability at high temperature and humidity (uncovered vial in stability chamber, then PXRD / 1H NMR analysis); type: physicochemical; design: key to Form stability result (PXRD): NC: no change in PXRD; conditions: 40° C./75% RH
Method: PXRD diffractograms were recorded on a Bruker D8 Discover powder X-ray diffractometer (Bruker AXS LLC, Karlsruhe, Germany). The sample holder was oscillated along X and Y axes during the measurement. The generator was a Incoatec Microfocus Source (IμS) Cu tube (λ=1.54060 Å) with a voltage of 50 kV and current of 1.00 mA, using a divergence slit of 0.3 mm and collimator of 0.3 mm. For each sample, one frame was collected using a still scan with a PILATUS3 R 100K-A detector at the distance of 154.72 mm from the sample. Raw data were evaluated using the program DIFFRAC.EVA (Bruker AXS LLC, Karlsruhe, Germany).
Samples were kept in an uncovered vial in a stability chamber maintained at 40° C./75% relative humidity (RH) for the specified period prior to PXRD analysis to evaluate form stability.

[2] = cited from earlier work
[3] = cited from earlier work; remark: listed apart in the source
[4] = cited from earlier work; remark: listed apart in the source

## CC1=CC(=O)NS(=O)(=O)O1.COC(=O)c1ccc2c(c1)NC(=O)C2=C(Nc1ccc(N(C)C(=O)CN2CCN(C)CC2)cc1)c1ccccc1 [Nintedanib acesulfamate Form APO-I, nintedanib acesulfamate]
[1]; 1 month
  Form stability result (PXRD): NC

## CC1=CC(=O)NS(=O)(=O)O1.CC1=CC(=O)NS(=O)(=O)O1.COC(=O)c1ccc2c(c1)NC(=O)C2=C(Nc1ccc(N(C)C(=O)CN2CCN(C)CC2)cc1)c1ccccc1 [Nintedanib diacesulfamate Form APO-I, nintedanib diacesulfamate]
[1]; 3 months
  Form stability result (PXRD): NC

## COC(=O)c1ccc2c(c1)NC(=O)C2=C(Nc1ccc(N(C)C(=O)CN2CCN(C)CC2)cc1)c1ccccc1.O=C(O)CCCC(=O)O [Nintedanib glutarate Form APO-I, nintedanib glutarate]
[1]; 1 month
  Form stability result (PXRD): NC

## COC(=O)c1ccc2c(c1)NC(=O)C2=C(Nc1ccc(N(C)C(=O)CN2CCN(C)CC2)cc1)c1ccccc1.O=C(O)CNC(=O)c1ccccc1 [Nintedanib hippurate Form APO-I, nintedanib hippurate]
[1]; 3 months
  Form stability result (PXRD): NC
[1]; after storage (3 months per Table 8)
  1H NMR spectroscopy following storage: no change

## CC(=O)CCC(=O)O.COC(=O)c1ccc2c(c1)NC(=O)C2=C(Nc1ccc(N(C)C(=O)CN2CCN(C)CC2)cc1)c1ccccc1 [Nintedanib levulinate Form APO-I, nintedanib levulinate]
[1]; 3 months
  Form stability result (PXRD): NC

## COC(=O)c1ccc2c(c1)NC(=O)C2=C(Nc1ccc(N(C)C(=O)CN2CCN(C)CC2)cc1)c1ccccc1.O=C1NS(=O)(=O)c2ccccc21 [Nintedanib saccharinate Form APO-I, nintedanib saccharinate]
[1]; 1 month
  Form stability result (PXRD): NC

## COC(=O)c1ccc2c(c1)NC(=O)/C2=C(\Nc1ccc(N(C)C(=O)CN2CCN(C)CC2)cc1)c1ccccc1 [nintedanib esylate, (3Z)-2,3-dihydro-3-[[[4-[methyl[(4-methyl-1-piperazinyl)acetyl]amino]phenyl]amino]phenylmethylene]-2-oxo-1H-indole-6-carboxylic acid methyl ester]
[2]
  Solubility in neutral aqueous conditions: poor
[3]
  Chemical stability in the presence of water: undergo hydrolysis
[4]
  Bioavailability in humans: low
